Experimental data: PubChem BioAssay (NCI)
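How tested: cells in 96-well plates exposed to compound for 48 hours at five concentrations. Definition used: TGI = concentration required for complete inhibition of growth.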

How the values were obtained:
Experiment in all cases: NCI-60 cell line screen, 48 h
HCC-2998 colon = test system: HCC-2998 colon
SF-539 CNS = test system: SF-539 CNS
CCRF-CEM leukemia = test system: CCRF-CEM leukemia
TK-10 renal = test system: TK-10 renal
HCT-116 colon = test system: HCT-116 colon
OVCAR-4 ovarian = test system: OVCAR-4 ovarian
A498 renal = test system: A498 renal
COLO 205 colon = test system: COLO 205 colon
MDA-MB-435 = test system: MDA-MB-435
NCI-H23 lung = test system: NCI-H23 lung
T-47D breast = test system: T-47D breast
LOX IMVI melanoma = test system: LOX IMVI melanoma
NCI-H226 lung = test system: NCI-H226 lung
SK-MEL-5 melanoma = test system: SK-MEL-5 melanoma
U251 CNS = test system: U251 CNS
UACC-257 melanoma = test system: UACC-257 melanoma
UACC-62 melanoma = test system: UACC-62 melanoma

Compound	TGI (HCC-2998 colon)	TGI (SF-539 CNS)	TGI (CCRF-CEM leukemia)	TGI (TK-10 renal)	TGI (HCT-116 colon)	TGI (OVCAR-4 ovarian)	TGI (A498 renal)	TGI (COLO 205 colon)	TGI (MDA-MB-435)	TGI (NCI-H23 lung)	TGI (T-47D breast)	TGI (LOX IMVI melanoma)	TGI (NCI-H226 lung)	TGI (SK-MEL-5 melanoma)	TGI (U251 CNS)	TGI (UACC-257 melanoma)	TGI (UACC-62 melanoma)
CCOP(=O)(OCC)/C(C#N)=C/c1ccc(-c2ccc(F)cc2F)o1	27.6 µM	35.8 µM	38.7 µM	25.5 µM	32.3 µM	33.4 µM	28.8 µM	30.7 µM	27 µM	33.6 µM	8.35 µM	32.9 µM	36 µM	35.7 µM	32.6 µM	26.8 µM	23.4 µM
CCCCCCCCCCCCCCCCCCNc1ccn(C2OC(CO)C(O)C2O)c(=O)n1 (stereo not drawn)	> 100 µM	> 100 µM	30.4 µM	> 100 µM	> 100 µM	> 100 µM	> 100 µM	> 100 µM	> 100 µM	> 100 µM	> 100 µM	> 100 µM	> 100 µM	> 100 µM	> 100 µM	> 100 µM	> 100 µM
CSc1nc(-c2ccc(C)cc2)c(C#N)c(=O)[nH]1	> 100 µM	> 100 µM	> 100 µM	> 100 µM	> 100 µM	> 100 µM	> 100 µM	> 100 µM	> 100 µM	> 100 µM	> 100 µM		> 100 µM	> 100 µM	> 100 µM	> 100 µM	> 100 µM
COc1cc2nc(-c3cccs3)nc(N3C(c4ccc(O)cc4)=NNC(=O)c4ccccc43)c2cc1OC	38.5 µM	23.6 µM	> 100 µM	70.5 µM	86 µM	> 100 µM	> 100 µM	52.1 µM	58.9 µM	78.1 µM	> 100 µM	54.6 µM	41.4 µM	> 100 µM	75.9 µM	84.9 µM	43 µM
Cc1cc(OCc2nn(CN3CCN(C)CC3)c(=S)n2/N=C/c2ccc(-c3ccc(Cl)cc3Cl)o2)ccc1Cl	31.4 µM	> 100 µM	> 100 µM	> 100 µM	> 100 µM	70.6 µM	> 100 µM		> 100 µM	> 100 µM	> 100 µM	> 100 µM	> 100 µM	> 100 µM	> 100 µM	> 100 µM	
C=CCOc1ccc(/C(N=Nc2ccccc2)=N/NC(=O)c2ccccc2)cc1OC	> 100 µM	> 100 µM	> 100 µM	> 100 µM	> 100 µM	> 100 µM	> 100 µM	> 100 µM	> 100 µM	> 100 µM	> 100 µM	> 100 µM	> 100 µM	> 100 µM	> 100 µM	> 100 µM	> 100 µM
CCCCn1cnnc1NS(=O)(=O)c1cc(C)c(Cl)cc1SCC(=O)O	> 10 µM	> 10 µM	> 10 µM	> 10 µM	> 10 µM	> 10 µM	> 10 µM	> 10 µM	> 10 µM	> 10 µM	> 10 µM	> 10 µM	> 10 µM	> 10 µM	> 10 µM	> 10 µM	> 10 µM
CC(=O)OC1COC(n2nc(/C=C/c3ccc(Cl)cc3)c(=O)n(/N=C/c3ccccc3)c2=S)C(OC(C)=O)C1OC(C)=O (stereo not drawn)	> 100 µM	> 100 µM	> 100 µM	> 100 µM	> 100 µM	> 100 µM	> 100 µM	> 100 µM	> 100 µM	> 100 µM	> 100 µM	> 100 µM	> 100 µM	> 100 µM	> 100 µM	> 100 µM	> 100 µM
C(=C\c1nccs1)/c1cccc(/C=C/c2nccs2)n1	> 50 µM	> 50 µM	> 50 µM	> 50 µM	> 50 µM	> 50 µM	> 50 µM	> 50 µM	> 50 µM	> 50 µM	> 50 µM	> 50 µM	> 50 µM	> 50 µM	> 50 µM	> 50 µM	> 50 µM
O=c1[nH]/c(=C/c2ccc(OCc3ccccc3)cn2)c(=O)[nH]/c1=C/c1ccc(Cl)cc1	> 100 µM	> 100 µM	> 100 µM	> 82.9 µM	> 100 µM	> 100 µM	7.53 µM	> 100 µM	0.796 µM	> 100 µM	> 100 µM	> 100 µM	> 100 µM	> 100 µM	> 100 µM	> 100 µM	> 100 µM
Cc1nc2ccc(F)cc2c2c1CCO2	> 100 µM	> 100 µM	> 100 µM	> 100 µM	> 100 µM	> 100 µM	> 100 µM	> 100 µM	> 100 µM	> 100 µM	> 100 µM	> 100 µM	> 100 µM	> 100 µM	> 100 µM	> 100 µM	> 100 µM
CC(=O)Oc1ccc2c(C)cc(=O)oc2c1	> 100 µM	> 100 µM	> 100 µM	> 100 µM	> 100 µM	> 100 µM	> 100 µM	> 100 µM	> 100 µM	> 100 µM	> 100 µM	> 100 µM	> 100 µM	> 100 µM	> 100 µM	> 100 µM	> 100 µM
O=C(O)CCC(NC(=O)c1ccc(Nc2cnc3ccc(C(F)(F)F)cc3n2)cc1)C(=O)O (stereo not drawn)	> 100 µM	> 100 µM	> 100 µM	> 100 µM	> 100 µM	> 100 µM	> 100 µM	> 100 µM	> 100 µM	> 100 µM	> 100 µM	> 100 µM	> 100 µM	> 100 µM	> 100 µM	> 100 µM	> 100 µM
